According to patent publication US6716582B2 (priority 2000, dated 2004):

What was measured:
Format in all cases: cell-based, E. coli
[1] = tested on: Luxarray 0.5 luxCDABE reporter clones; assay: Luxarray 0.5 solid phase perturbation with nalidixic acid; conditions: for bioluminescence response: solid phase, 1 or 5 μg/ml, 2 hrs
Protocol: A solid phase assay system consisting of reporter clones growing in the presence or absence of a perturbation, biological, environmental or chemical was developed. This was accomplished by growing the reporters on a porous membrane (Biodyne B, Nunc) seated on top of solid growth media in a culture dish (OmniTray, Nunc). Luminescence was measured either by a luminometer or by creating an image of the entire culture and quantitating the pixel density. Effects of perturbants can be determined by comparison of luminescence generated by treated and control cultures. Growth on the surface of the membrane allows the reporter assay to be moved between conditions as required. Experimental protocols often involve perturbations that prohibit long term exposure due to cell death or other irreversible effects. The ability to move the entire array to new growth conditions allows one a great variety of experimental schemes such as pulsed or pulse/chase exposures, reversibility, and short term kinetic studies.
Membranes were sterilized with UV illumination for 10 min then placed in contact with prewarmed media in a culture dish. The clones and controls were printed onto an approximately 8×12 cm membrane mimicking the pattern of a 96-well plate (FIG. 3A). Strains were printed to generate 8 repeating sections of the 10 strains and two controls and placed in a Dynex ML3000 luminometer prewarmed to 37° C. Luminescence data was collected for each spot for 40 cycles of 20 min duration (overnight). […] Without exception, the signal strength measured corroborated the data obtained in liquid culture. Additionally, replicates varied minimally, again similar to liquid culture measurements.
Next the system was evaluated for its ability to determine responses to perturbation, in this case, DNA damage caused by nalidixic acid. Parental clone and two nonresponding reporters, osmY, and lacZYA, and three DNA damage responsive reporters, uvrA, recA, dinG, were chosen. […] The membranes were moved to new, pre-warmed plates containing varying amounts of nalidixic acid and light readings collected with an ML3000 luminometer. […] Luminescence was measured with a Dynex ML3000 luminometer every 30 min for 2 hrs. […] The strain containing the parental plasmid, pDEW201, without a promoter driving luxCDABE expression produces very low levels of bioluminescence that are very close to the background measured on a ML3000 luminometer for strains grown in 96-well microplates. […]
The clones of Luxarray 0.5 were used to print arrays as described above at a 4×4 density. […] Spot intensity was determined using ArrayVision™ (Imaging Research, Toronto, Canada).

luxCDABE gene fusions = assay: retest of nalidixic acid upregulated fusions in liquid medium; conditions: of 7 conc tested
Protocol: Several concentrations of nalidixic acid were used because the differences in responses between liquid and solid growth were not known. Light production of 100 μl duplicate cultures at 37° C. was quantitated using a 96 well plate luminometer (Luminoskan Ascent, Labsystems). […] It should be noted that the liquid medium tests were not corrected for growth inhibition by nalidixic acid.

yebF-luxCDABE fusion = assay: inverted yebF-luxCDABE fusion induction by DNA damaging agents; conditions: inverted yebF-lux transformants; nalidixic acid
Description: In this case, a divergent promoter to the purT gene was present in the chromosomal fragment and strains containing the backward yebF fusion produced light. Following isolation of plasmid DNA, XmaI digestion that releases the insert DNA from the vector, religation and transformation, 10% of the transformants produced light. […] The orientation of the inserted segment to yield a fusion of yebF to the luxCDABE operon was confirmed by DNA sequence analysis.
To test inverting of a chromosomal segment in a plasmid containing divergent promoters, the backward fusion to yebF was chosen. […] In this case, a divergent promoter to the purT gene was present in the chromosomal fragment and strains containing the backward yebF fusion produced light. Following XmaI digestion, religation and transformation, 10% of the transformants produced light. […] This was verified by DNA sequence analysis. Thus, inverting chromosomal segments containing divergent promoters is possible and is facilitated if the two promoters can be distinguished by their biological activity.

CCn1cc(C(=O)O)c(=O)c2ccc(C)nc21 [Nalidixic acid, nalidixic acid]
bioluminescence response ([1]; SOS regulon reporters uvrA, recA, dinG): increased bioluminescence | reporter expression ([1]; five DNA damage-responsive reporters, high density array, 5 μg/ml, 0-8 hr): upregulation of expression | light production ([1]; lac promoter fusion and several other promoter fusions, high density array, 5 μg/ml): decreased | bioluminescence response ([1]; osmY and lacZYA fusions): unaffected | # of conc with > 1.5 fold up (luxCDABE gene fusions; dinG ybiB lux-a.pk0024.f5): 6 | # of conc with > 1.5 fold up (luxCDABE gene fusions; dinP lux-a.pk055.a3): 7 | # of conc with > 1.5 fold up (luxCDABE gene fusions; frvR frvX frvB frvA lux-a.pk046.e6): 0 | # of conc with > 1.5 fold up (luxCDABE gene fusions; lpxA lpxB rnhB dnaE lux-a.pk061.c3): 3 | # of conc with > 1.5 fold up (luxCDABE gene fusions; lux-a.pk0015.d6): 6 | # of conc with > 1.5 fold up (luxCDABE gene fusions; lux-a.pk0019.g1): 6 | # of conc with > 1.5 fold up (luxCDABE gene fusions; lux-a.pk033.c5): 7 | # of conc with > 1.5 fold up (luxCDABE gene fusions; oraA lux-a.pk058.f5): 7 | # of conc with > 1.5 fold up (luxCDABE gene fusions; yaaF lux-a.pk031.e7): 3 | # of conc with > 1.5 fold up (luxCDABE gene fusions; yfhJ fdx hscA yfhE lux-a.pk0019.g2): 0 | # of conc with > 1.5 fold up (luxCDABE gene fusions; yigN lux-a.pk046.f11): 5 | induction of bioluminescence (yebF-luxCDABE fusion): highly induced
